# From US20170367338A1, “COMPOSITIONS AND METHODS FOR IMPROVING AGRONOMIC CHARACTERISTICS OF PLANTS” (MONSANTO TECHNOLOGY LLC, priority 2014, published 2017)
# Read-outs that look alike come from different tables or passages of the source.
# Key:
# root knot nematode (RKN) [1] = assay: RKN greenhouse soil assay on cucumber plants; assay type: in vivo; settings: Radex emulsifiable concentrate formulation (6.25% active ingredient)
# root knot nematode (RKN) [2] = assay: RKN greenhouse soil assay on cucumber plants; assay type: in vivo; settings: Acetone formulation (10% acetone in 0.05% Triton X 100), 1 mg/kg
# Source text: Cucumber seeds are planted in a sandy soil mixture in two inch square plastic pots. When the cotyledons are fully opened and just as the first leaf begins to emerge, usually 7 days after planting, chemistry for the 7 day treatment is applied. One week later the chemistry for the 0 day treatment is applied. Separate plants are used for each application. The plants are generally in the 1-2 leaf stage now. At least four hours after the chemistry application the pots are inoculated with root knot nematode (RKN) eggs. Plants are rated for galling 14 days after the egg inoculation.
# (§1) One milligram of chemistry per four pots is equal to one kilogram per hectare of chemical. A standard test uses four replications. For rates above 2 kg/ha, the desired amount of chemical is weighed into a 30 ml vial (example: 8 kg/ha rate =8 mg chemical in 30 ml vial). The chemical is dissolved in 2 ml of appropriate solvent, generally acetone. For rates below 2 kg/ha, 2 milligrams of chemistry is weighed into the vial and dissolved in 2 ml of the solvent. The appropriate amount of chemical concentrate is then pipetted into a separate 30 ml vial and solvent is added to bring the volume to 2 ml (example 0.5 kg/ha=0.5 ml of concentrate+1.5 ml solvent). Each dissolved concentrate is then brought to a total of 20 milliliters using 0.05% Triton X 100 surfactant solution.
# (§2) Pots to be treated are moist but not saturated. To each of four pots, five milliliters of the appropriate chemical solution is pipetted to the media surface making sure to avoid contact with the base of the plant. Immediately following chemical application, using a mist nozzle, the pot surface is wetted sufficiently to saturate the pot watering in the chemistry. The chemical application is done in the morning.
# (§3) Nematode eggs, either SCN or RKN, are added to distilled water to create a concentration of 1000 vermiform eggs […]. At least four hours after chemical treatment the eggs are applied to the treated pots plus non-treated check plants. A small hole about 1 cm deep is punched into the pot surface. One milliliter of the nematode egg slurry is pipetted into the hole. Immediately afterwards the hole is gently covered. Watering of the test plants is then restricted to only water as needed to prevent wilt for a period of 24 hours. After the 24 hour restricted watering, normal sub-irrigation watering is done for the duration of the test.
# [3] = system: soybean cyst nematode (SCN); assay: SCN greenhouse sand assay on soybean plants; assay type: in vivo; settings: Glycine max, 672 h, read-out: percent control (cyst number reduction) relative to the control blank treatment; for pest or weed control at 2000 g/ha: 2 kg/ha
# Source text: Soybeans seeds are planted in 100% sand in two inch square plastic pots. Chemical treatment is done when the soybeans show the first trifoliate beginning to emerge about 10 to 12 days after planting. At least four hours after chemical application the nematode soybean cyst nematode (SCN) eggs are applied and 28 days after the egg inoculation the test is harvested.
# as §1, §2, §3
# [4] = assay type: in vivo; settings: for acute oral toxicity: mortality and signs: 500 mg/kg oral, three female mice, observed up to 14 days
# Procedure: Acute oral toxicity testing was performed in mice in accordance with test method P203.UDP, as administered by Eurofins/Product Safety Laboratories (Dayton, New Jersey). CD-1/Swiss derived albino mice were obtained and group housed in suspended solid bottom caging. The mice were fed rodent chow and filtered tap water was supplied ad libitum. Following acclimation to the laboratory setting, a group of animals was fasted overnight by removing food from the cages. After the fasting period, three female mice were selected based on vitality and initial body weights. The individual compound doses were calculated from these body weights.
# The test substance was prepared as a 1% (50 mg/kg) or 5% (500 mg/kg) weight to weight (w/w) mixture in a 0.5% w/w solution of carboxymethylcellulose (CMC) in distilled water. A tissue homogenizer was used to create a homogeneous mixture. A dose of 50 or 500 mg/kg was administered to three healthy mice per dose level by oral intubation using a ball-tipped gavage needle attached to a syringe. After administration, the animals were returned to their cages, and feed was replaced immediately after dosing.
# Body weights were recorded prior to initiation and on Days 7 and 14 or a soon as possible after death.
# Meloidogyne incognita [5] = assay: Fall nematicidal field test on squash; settings: for RW28 root weight at 28 days after treatment / RW43 root weight at 43 days after treatment / TW28 top weight at 28 days after treatment: 2 kg ai/ha, squash
# Source text: The soil was a native prairie/pasture covering silty clay loam soil. […] Total volume of each hole was about 1.2 cubic feet. […] Holes were filled and then re-filled 5 days later after settling. […] Organic matter was 0.2% and pH was 6.8.
# Treatments were arranged in a block design with the blocks laid out perpendicular to the primary slope and parallel to secondary slope. There are 7 inoculated controls and 5 non-inoculated controls and the distributions of disease severity appeared independent of location.
# The resultant mix is the same as used in the standard greenhouse assays (10% acetone, 0.05% X100). The oxamyl treatments were prepared from Vydate 2L formulated the same way. The 500 ml was placed in a watering can and the entire volume was evenly sprinkled over the surface of the plot. No runoff occurred and pooling, if any, was short lived. The final drench volume was 0.58 ml/cm^2, compared to 0.2 ml/cm^2 used in our greenhouse, however the microplots are much deeper so the drench volume applied per soil volume treated is roughly the same.
# Meloidogyne incognita eggs were harvested over a two week period and stored at approximately 5° C. until needed. A stock of 5.6 million vermiform eggs was adjusted to 9000/m1 in 620 ml. One day after treatment, two holes were made in each plot about 7 cm apart and equidistant from the squash plants. Five ml of egg suspension was pipetted into each hole, which was then sealed and the plot lightly watered. A total of 90,000 vermiform eggs were added to each plot.
# The first root evaluation was at 28 DAT. The tops were cut off and weighed immediately in the field, and the roots were carefully dug out so as not to disturb the remaining plant.
# root knot nematode = assay: Pre-plant incorporated (PPI) greenhouse test of root knot nematode on cucumber plants; assay type: in vivo; settings: 504 h, twenty one day pre-plant incorporated
# Source text: The PPI test examines the effect of pre-incorporation of compounds in soil and longer aging to simulate in furrow methods of nematicide application in the field. The PPI test exposes compounds to a higher volume of soil and drying which can result in more severe soil binding. Compounds are also aged for longer periods which can lead to more extensive biotic and abiotic degradation further limiting activity.
# The chemically treated soil (sandy soil mix) for all treatment days (e.g., 7 days, 14 days, 21 days) treatments is potted into their appropriate pots. On the same day the 7 day treatment pots are seeded. One week later eggs are applied and 14 days after egg application the test is harvested. The 14 day treatments are planted 7 days after the first planting. The 14 day planting and 7 day inoculation happen on the same day. One week later the 14 day treatments are inoculated with eggs. These are harvested 14 days after the inoculation. The 21 day treatments are planted 14 days after the first planting. The 14 day inoculation and 21 day planting are done on the same day. One week later the 21 day plants are inoculated with eggs. The 7 day treatment is harvested the same day as the 21 day inoculation. Fourteen days after inoculation the 21 day plants are harvested.
# For each compound a stock is prepared using 4 mg material in 4 ml of acetone. The soil is mixed by placing 80 ml of field soil and 320 ml of sand in a plastic bag and mixing well. The formulation for treatment is done by adding 2.13 ml (8 kg/ha rate), 1.06 ml (4 kg/ha rate) or 0.53 ml (2 kg/ha rate) to a vial and raising it with 10 ml in 0.05% X100. Soil is then treated by adding the entire 10 ml to the 400 ml of mix in the bag. The treated soil is immediately mixed well in the sealed bag to distribute the compound evenly. Approximately 95 ml is used to fill each 2-inch square pot up to the top with some soil compression and flattening. For each compound and for the control treatments 4 pots are filled. All pots are watered until moist but with no run-out through the bottom.
# The PPI test simulates 8, 4 and 2 kg/ha rates incorporated 15 cm deep in the field and is equivalent to the 2, 1 and 0.5 kg/ha drench application rates in the standard 2-inch pot cucumber greenhouse assay.
# Meloidogyne incognita [6] = assay: M. incognita miniaturized greenhouse assay on cucumber seedlings; assay type: in vivo; settings: 1 ppm
# Procedure: The test compound is dissolved in an acetone solution and added to water. A sprouted cucumber seedling is placed into a vial with dry sand and the water-chemical solution is added immediately. Twenty four hours later Meloidogyne incognita eggs are added to the vials and 10 to 12 days later the roots are evaluated for nematode galling.
# Cucumber seeds are sprouted for 3 days in moist paper towels. Acceptable sprouts should be 3 to 4 cm long with several lateral roots just emerging. Stock solutions of chemistry are prepared in a mixture of acetone and Triton X100 (412 mg in 500 mL) to a final concentration of 5 mg/mL. The chemical stock solution is then added to 10 mL deionized water plus 0.015% Triton X100 and mixed thoroughly. This is enough to test each condition in triplicate. Ten mL dry sand is added to each vial. At this time the solubility of the chemistry is visually determined and recorded as either ppt (large precipitates) or cloudy (fine precipitates). Seedlings are planted by tilting the vial and laying the seedling in the correct orientation so that the cotyledons are just above the sand and then tilting back to cover the radicles with sand. 3.3 ml water/chemical mix is added to each vial and the vials placed in racks under fluorescent light banks. The vials are inoculated two days after planting by adding 500 vermiform M. incognita eggs to each vial in 50 uL of deionized or spring water. The vials are then kept under the fluorescent lamps at ambient room temperature and watered as needed with 1mL deionized water, usually twice during duration of test. Harvest of the cucumber plants is done 10 to 12 days after inoculation by washing sand off the roots. A root gall rating and visual phytotoxicity rating is assigned using the following scales: Gall rating scale (Gall: % root mass galled): 0=0-5%; 1=6-20%; 2=21-50%; and 3=51-100%. The average of the triplicate gall rating is then calculated: green=0.00-0.33 (no galls); yellow=0.67-1.33 (mild galling); orange=1.67-2.33 (moderate galling); red=2.67-3.00 (severe galling). Visual phytotoxicity scale is also assigned (Vis. tox; visual reduction in root mass compared to the control): rs1=mild stunting; rs2=moderate stunting; rs3=severe stunting.
# C. elegans = assay: Three day C. elegans well assay; assay type: in vivo; settings: Caenorhabditis elegans, L1 larvae
# Procedure: Various compounds were tested for nematicidal activity against C. elegans using contact assays in wells. The assays were performed as described below. The test compounds were solubilized in DMSO at 10 mg/ml to create 100× stock solutions. A dilution series was created by diluting the stock solution with DMSO. For each well assay 4 ul of the appropriate dilution is added to a well of a test plate. A 400 ul aliquot of bacterial stock (in M9 buffer with ampicillin and nystatin) are added to each well of the test plate. Worms are added and the test plate placed on a rotary shaker and held at 20° C. Worms are examined and scored at 4 hrs, 24 hrs, 48 hrs and 72 hours. L1 worms and L4 worms were used in the assay. L1 worms are prepared by plating eggs on a plate without a bacterial feeding layer. The eggs hatch and arrest at the L1 stage. This L1 stage population is then used to create a stock for the experiments. To create an L4 stage stock a small number of worms are taken from an overgrown and starved plate of worms and seeded on a plate with a bacterial feeder layer. A 25 ul aliquot of worms is added to each well in the assay.
# Meloidogyne incognita [7] = assay: Summer field evaluation of pre-plant incorporated compounds on squash; assay type: in vivo; settings: 4 kg/ha
# Procedure: Test plots of 33 cm diameter holes were bored 41 cm deep into clay soil and filled with a mixture of 80% sand and 20% silt loam soil. Technical compound for each treatment was dissolved in 50 ml acetone containing 250 ul of Triton X-100 surfactant. This solution was added to 450 ml water and poured onto 95 liters of sand/soil mixture in a rotating drum mixer. While continuing to rotate the mixing drum 66 grams of chopped, galled, tomato roots was added and thoroughly distributed. The treated soil was sufficient to fill the top 15 cm of each of the 6 replicate plots, thus simulating a PPI treatment. The plots were then watered lightly and a mixture of M. incognita eggs and larvae were injected 5 cm deep at 5 points within the plot (100k eggs/larvae in 10m1 per plot). Three-week old squash (cv. Liberator III) with 1 fully expanded true leaf was planted 4 days after soil treatment, one per plot.
compound,measurement,setting,value
Brc1ccc(-c2noc(-c3cccs3)n2)cc1 [compound 1846],"percent control (galling reduction), Radex 1 mg/kg",root knot nematode (RKN) [1],86%
same,"percent control (galling reduction), Acetone 1 mg/kg",root knot nematode (RKN) [2],88%
c1ccc(-c2cnc(-c3cccs3)o2)cc1 [compound 4417],pest or weed control at 2000 g/ha,[3]; test b,94%
same,acute oral toxicity: mortality and signs,[4],One animal died within four days
same,RW28 root weight at 28 days after treatment,Meloidogyne incognita [5],5.3
same,RW43 root weight at 43 days after treatment,Meloidogyne incognita [5],16.4
same,TW28 top weight at 28 days after treatment,Meloidogyne incognita [5],97.5
same,Leaf diameter of the first true leaves,"Meloidogyne incognita [5]; 2 kg/ha, five days after treatment (5 DAT)",slight reduction
same,phytotoxicity,"Meloidogyne incognita [5]; 2 kg/ha, two days after treatment, squash seedlings",slight phytotoxicity
Clc1ccc(-c2nnc(-c3cccs3)o2)cc1 [compound 4559],pest or weed control at 2000 g/ha,[3]; test a,98%
same,RW28 root weight at 28 days after treatment,Meloidogyne incognita [5],6.4
same,RW43 root weight at 43 days after treatment,Meloidogyne incognita [5],13.2
same,TW28 top weight at 28 days after treatment,Meloidogyne incognita [5],150.8
same,control of root galling compared with oxamyl at an equivalent rate,Meloidogyne incognita [5]; 43 day time point,significantly better than oxamyl
Fc1ccc(-c2cnc(-c3cccs3)o2)cc1 [compound 4775],pest or weed control at 2000 g/ha,[3]; test b,95%
same,acute oral toxicity: mortality and signs,[4],all animals survived
Brc1ccc(-c2cnc(-c3cccs3)o2)cc1 [compound 4776],pest or weed control at 500 g/ha,"[3]; 0.5 kg/ha, test c",78%
same,pest or weed control at 1000 g/ha,"[3]; 1 kg/ha, test c",89%
same,pest or weed control at 2000 g/ha,[3]; test a,99%
same,acute oral toxicity: mortality and signs,[4],two animals died within three days
same,oral toxicity,"[4]; mice, estimate based on the 50 and 500 mg/kg studies",lower than 500 mg/kg
same,pest or weed control at 4000 g/ha,"root knot nematode; 4 kg/ha, read-out: percent control (galling reduction), 4 kg/ha rate",50%
same,pest or weed control at 8000 g/ha,"root knot nematode; 8 ka/ha, read-out: percent control (galling reduction), 8 ka/ha rate",80%
same,RW28 root weight at 28 days after treatment,Meloidogyne incognita [5],7.5
same,RW43 root weight at 43 days after treatment,Meloidogyne incognita [5],13.0
same,TW28 top weight at 28 days after treatment,Meloidogyne incognita [5],250.8
same,control of root galling compared with oxamyl at an equivalent rate,Meloidogyne incognita [5]; both the 28 day and the 43 day time point,statistically better than oxamyl
same,1 ppm gall rating,Meloidogyne incognita [6]; Table 1C test a,1 (1=6-20%)
same,1 ppm gall rating,Meloidogyne incognita [6]; Table 1C test c,1 (1=6-20%)
Cc1cc(Br)ccc1-c1nsc(-c2ccco2)n1 [compound 5939],pest or weed control at 100 g/ha,"[3]; 0.1 kg/ha, test d",64%
same,pest or weed control at 250 g/ha,"[3]; 0.25 kg/ha, test d",88%
same,EC50,"C. elegans; 24 h, one day of exposure, read-out: EC50 L1 1D",0.4 µg/mL
same,EC50,"C. elegans; 48 h, two days of exposure, read-out: EC50 L1 2D",0.4 µg/mL
same,EC50,"C. elegans; 72 h, three days of exposure, read-out: EC50 L1 3D",0.4 µg/mL
Clc1ccc(-c2nsc(-c3ccco3)n2)c(Cl)c1 [compound 5960],acute oral toxicity: mortality and signs,[4],all animals survived
same,control of M. incognita by PPI application,Meloidogyne incognita [7],significant control
